Tests used:
[1] = in vivo; cited from earlier work
intracellular Ca^++ = settings: (2) Ca++ liberated from intracellular store; (3) influx through receptor-operated channel; cited from earlier work
[2] = test system: ischemia-reperfusion-induced ventricular arrhythmia in rats; test: Effect on the ischemia-reperfusion-induced ventricular arrhythmia in rats; type: in vivo, rat; settings: 3, 10, and 20 mg/kg given orally
Description: Male Sprague-Dawley rats, 9 to 10 week old, were orally given the compounds or tap water at a volume of 5 ml/kg. After one hour, the animals were anesthetized with sodium pentobarbital (50 mg/kg, by intraperitoneal injection), and they were subjected to thoractomy under artificial respiration, and the left anterior descending coronary artery was occluded for five minutes. The incidences of ventricular tachycardia, ventricular fibrilation and cardiac arrest for ten minutes after reperfusion of the blood were calculated.

[3] = test system: caffeine-induced contraction of rabbit aorta strip depending on intracellular Ca^++; test: Intracellular Ca++ antagonism: inhibition of caffeine-induced contraction of aorta strip in Ca-free/EGTA solution; settings: Oryctolagus cuniculus, caffeine 20 mM, Ca++ 0 mM, EGTA 5 mM, read-out: Inhibitory percent (caffeine contraction); for inhibition at 10 µM: compound 10^-5 M
Description: A spiral strip of aorta of a rabbit (2 to 3 mm width, aobut 3 cm length) was allowed to equilibrate by hanging under 2 g force in a Krebs-Henseleitsolution. The solution was saturated with a mixture gas of 97% O2 -3% CO2, which was warmed to 37° C. The strip was moved into another Krebs-Henseleit solution containing Ca^++ OmM and EGTA 5 mM. Five minutes later, caffeine (20 mM) was added to the solution. The resulting contraction of the strip was made as the index of the contraction depending on intracellular Ca^++.

[4] = Acute toxicity (oral, 7 days observation); settings: rat, in vivo, male rats, five animals/group, seven days
Excerpt: Male Wister rats aged five weeks (five animals/group) were orally given the test compounds (Example No. 1, 14, 15 and 18) suspended in a 5% solution of gum arabic. Each animal so treated was observed over a period of seven days.

[5] = test system: acute renal failure in rats; test: Effect on acute renal failure in rats (plasma urea nitrogen, BUN); type: in vivo, rat; settings: 1, 3 and 10 mg/kg given orally
Description: Male sprague-Dawley rats, 6 week old, were orally given the compunds or tap water at a volume of 5 ml/kg. After one hour, the animals were anesthetized with sodium pentobarbital. The animals were subjected to laparotomy, and the left renal artery was clamped completely for one hour. The clamp was undone, and the incision was closed. The animals were again given orally the compounds or tap water 20 hours later. Further four hours later, the animals were again anesthetized, and the blood was obtained from the abdominal aorta. The plasma was separated for measurement of urea nitrogen (BUN).

[6] = cited from earlier work

Structure (SMILES) | side effects [1] | action on intracellular Ca++ (intracellular Ca^++) | inhibition at 10 µM [3] [%] | other results
COc1cc2nc(N3CCN(C(=O)c4ccco4)CC3)nc(N)c2cc1OC [prazosin] | orthostatic hypotension often observed | – | – | –
COC(=O)C1=C(C)NC(C)=C(C(=O)OC)C1c1ccccc1[N+](=O)[O-] [nifedipine] | – | hardly acts on (2) and (3) | – | –
O=C1Nc2cc3c(cc2OC1CCCN1CCN(c2ccc(F)cc2)CC1)CCCC3 (stereo not shown) [Example 1, 2-{3-[4-(4-fluorophenyl)-1-piperazinyl]propyl}-6,7,8,9-tetrahydro-2H-naphtho[2,3-b][1,4]oxazin-3(4H)-one] | – | – | 87 | incidences of cardiac functional abnormalities [2]: inhibited the incidences of cardiac functional abnormalities in a dose-dependent manner; inhibition at 1 µM ([3]; compound 10^-6 M): 60%; LD50 at 168 h [4]: ≥ 300 mg/kg; increase in BUN [5]: inhibited the increase in BUN
CN1CCN(CCCN2c3ccccc3Sc3ccc(C(F)(F)F)cc32)CC1 [trifluoperazine] | side effects e.g. on the central nervous system | showing antagonism against intracellular Ca^++ | – | –
NCCCCCCNS(=O)(=O)c1cccc2c(Cl)cccc12 [Example W-7] | – | weak in action | – | –
CCN(CC)CCCCCCCCOC(=O)c1cc(OC)c(OC)c(OC)c1 [TMB-8] | – | weak in action | 48 | antihypertensive action in vivo [6]: do not display antihypertensive action in vivo
